Data from ChEMBL document CHEMBL1201862, “PubChem BioAssay data set” (2004).
The source made the active and inactive calls.

How the values were obtained:
[1] = SFLLRN-induced P-Selectin Platelet Surface Expression Measured in Cell-Based System Using Flow Cytometry - 2016-03_Inhibitor_Dose_DryPowder_Activity_Set3. [Related pubchem assays (depositor defined):AID1678]; type: functional
[2] = Luminescence Cell-Based Dose Response Follow up to Identify Inhibitors of Platelet Dense Granule Release. [Related pubchem assays (depositor defined):AID1663, AID1678, AID1889, AID2519]; type: functional
HEK293 [3] = assay: inhibition of NOD1-driven NF-kB reporter – cell-based, luminescence, uHTS, primary screen (AID 1578); type: functional; settings: Homo sapiens
HEK293 [4] = assay: cells; type: functional, cell-based; settings: Homo sapiens
[5] = molecular target: T1, Heat shock factor protein 1 (Mus musculus, UniProt P38532); assay: decrease of HSF1-responsive luciferase luminescence – cell-based, NIH3T3, dose retest, confirmation (AID 2382); type: functional;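 further: NIH3T3 fibroblasts with HSF1-driven luciferase reporter stressed by proteasome inhibitor MG132; luminescence from HSF1-driven luciferase expression after 8 hours of MG132 stress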
T1 sequence (P38532 whole entry): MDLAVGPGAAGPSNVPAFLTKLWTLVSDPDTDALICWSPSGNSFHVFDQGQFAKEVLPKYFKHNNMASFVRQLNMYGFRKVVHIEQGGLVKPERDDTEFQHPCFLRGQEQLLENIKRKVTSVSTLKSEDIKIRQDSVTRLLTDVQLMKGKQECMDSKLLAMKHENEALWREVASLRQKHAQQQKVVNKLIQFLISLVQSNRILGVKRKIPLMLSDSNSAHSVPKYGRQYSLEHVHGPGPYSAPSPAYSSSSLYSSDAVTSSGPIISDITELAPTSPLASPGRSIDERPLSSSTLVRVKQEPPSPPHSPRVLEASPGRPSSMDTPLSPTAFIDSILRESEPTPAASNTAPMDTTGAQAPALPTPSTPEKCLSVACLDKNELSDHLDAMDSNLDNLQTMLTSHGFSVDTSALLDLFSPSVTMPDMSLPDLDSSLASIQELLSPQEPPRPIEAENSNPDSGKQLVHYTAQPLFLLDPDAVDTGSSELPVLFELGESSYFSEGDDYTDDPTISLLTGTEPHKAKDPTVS

HEK293 [6] = assay: cells; type: functional, cell-based; settings: Homo sapiens; remark: listed apart in the source
[7] = molecular target: Nucleotide-binding oligomerization domain-containing protein 2 (Homo sapiens, UniProt Q9HC29); assay: inhibition of NOD2-driven NF-kB reporter – cell-based, luminescence, uHTS, HEK293 (AID 1566); type: functional
Sequence of Nucleotide-binding oligomerization domain-containing protein 2 (Q9HC29 whole entry, the tested form may be a part): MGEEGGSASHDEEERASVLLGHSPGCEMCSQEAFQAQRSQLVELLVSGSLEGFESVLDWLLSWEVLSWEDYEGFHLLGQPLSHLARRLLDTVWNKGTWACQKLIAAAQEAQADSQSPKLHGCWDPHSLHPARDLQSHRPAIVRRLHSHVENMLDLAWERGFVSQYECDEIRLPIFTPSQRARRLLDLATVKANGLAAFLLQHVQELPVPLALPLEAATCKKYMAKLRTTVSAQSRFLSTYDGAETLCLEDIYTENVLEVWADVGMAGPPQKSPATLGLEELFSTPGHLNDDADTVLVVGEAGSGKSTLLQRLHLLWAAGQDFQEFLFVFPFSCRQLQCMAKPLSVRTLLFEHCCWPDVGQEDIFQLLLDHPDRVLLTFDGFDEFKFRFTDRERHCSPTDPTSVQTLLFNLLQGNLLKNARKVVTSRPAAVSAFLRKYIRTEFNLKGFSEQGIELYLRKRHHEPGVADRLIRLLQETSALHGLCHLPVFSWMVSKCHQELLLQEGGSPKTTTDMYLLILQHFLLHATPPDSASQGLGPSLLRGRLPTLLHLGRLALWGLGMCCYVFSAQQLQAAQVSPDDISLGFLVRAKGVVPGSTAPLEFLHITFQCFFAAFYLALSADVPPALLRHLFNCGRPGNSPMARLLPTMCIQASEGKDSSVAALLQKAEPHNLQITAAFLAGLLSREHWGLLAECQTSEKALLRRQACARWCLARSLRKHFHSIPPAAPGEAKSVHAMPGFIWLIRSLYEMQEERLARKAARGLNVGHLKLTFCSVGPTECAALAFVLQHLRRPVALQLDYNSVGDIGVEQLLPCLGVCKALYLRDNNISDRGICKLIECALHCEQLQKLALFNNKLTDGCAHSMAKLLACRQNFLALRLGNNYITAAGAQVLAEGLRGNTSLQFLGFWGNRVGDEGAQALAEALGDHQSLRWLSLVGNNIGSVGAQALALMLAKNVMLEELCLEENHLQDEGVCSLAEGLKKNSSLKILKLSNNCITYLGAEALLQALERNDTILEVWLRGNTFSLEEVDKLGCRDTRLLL

HEK293 [8] = assay: NOD2 signaling inhibitors in MDP-stimulated cells, cell-based, uHTS, luminescence (AID 2001); type: functional; settings: Homo sapiens
HEK293 [9] = assay: cells; type: functional, cell-based; settings: Homo sapiens; remark: listed apart in the source
[10] = molecular target: Luciferin 4-monooxygenase (Photuris pensylvanica, UniProt Q27757); assay: inhibition of Cell Titer Glo luciferase signal – biochemical, luminescence, cherry-picks, counter-screen for HSF-1 reporter inhibitor project, dose response (AID 588847)
Sequence of Luciferin 4-monooxygenase (Q27757 whole entry): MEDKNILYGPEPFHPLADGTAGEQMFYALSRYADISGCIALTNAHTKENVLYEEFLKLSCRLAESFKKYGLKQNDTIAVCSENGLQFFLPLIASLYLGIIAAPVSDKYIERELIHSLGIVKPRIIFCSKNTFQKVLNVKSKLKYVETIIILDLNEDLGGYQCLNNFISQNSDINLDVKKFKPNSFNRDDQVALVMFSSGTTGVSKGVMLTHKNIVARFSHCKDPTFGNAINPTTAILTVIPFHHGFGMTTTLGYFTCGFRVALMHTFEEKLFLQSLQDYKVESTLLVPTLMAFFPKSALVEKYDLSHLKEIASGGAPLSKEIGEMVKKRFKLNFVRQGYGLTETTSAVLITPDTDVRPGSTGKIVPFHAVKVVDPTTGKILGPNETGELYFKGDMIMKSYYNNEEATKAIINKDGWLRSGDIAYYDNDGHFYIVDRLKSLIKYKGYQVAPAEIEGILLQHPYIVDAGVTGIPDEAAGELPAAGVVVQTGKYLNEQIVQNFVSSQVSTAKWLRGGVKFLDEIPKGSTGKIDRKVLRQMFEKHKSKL

[11] = blockers of bursicon-stimulated LGR2 cAMP reporter – cell-based, HEK293, CRE-luciferase reporter, cherry pick, set 2, dose response (AID 743343); type: functional;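 further: transfected cells were stimulated with diluted bursicon conditioned medium after compound addition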
[12] = blockade of melanocortin 4 receptor signaling – cell-based, plate reader, cherry pick, counter-screen for LGR2 antagonist project, dose response (AID 743444); type: functional;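 further: transfected HEK 293 cells stimulated with alpha-MSH peptide; potency of inhibitors of the alpha-MSH evoked signal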
[13] = viability loss in HEK293 cells – cell-based, plate reader, cherry-picked samples, cytotoxicity control, dose response (AID 743446); type: functional
[14] = molecular target: T2, Microphthalmia-associated transcription factor (Homo sapiens, UniProt O75030); assay: reducers of TRPM1 reporter luminescence, concentration series – cell-based, SK-MEL-5, cherry-picked, set 3, MITF inhibitor project, dose response (AID 493073); type: functional;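 further: SK-MEL-5 melanoma cells with luciferase driven by the MITF target TRPM1 promoter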
T2 sequence (O75030 whole entry): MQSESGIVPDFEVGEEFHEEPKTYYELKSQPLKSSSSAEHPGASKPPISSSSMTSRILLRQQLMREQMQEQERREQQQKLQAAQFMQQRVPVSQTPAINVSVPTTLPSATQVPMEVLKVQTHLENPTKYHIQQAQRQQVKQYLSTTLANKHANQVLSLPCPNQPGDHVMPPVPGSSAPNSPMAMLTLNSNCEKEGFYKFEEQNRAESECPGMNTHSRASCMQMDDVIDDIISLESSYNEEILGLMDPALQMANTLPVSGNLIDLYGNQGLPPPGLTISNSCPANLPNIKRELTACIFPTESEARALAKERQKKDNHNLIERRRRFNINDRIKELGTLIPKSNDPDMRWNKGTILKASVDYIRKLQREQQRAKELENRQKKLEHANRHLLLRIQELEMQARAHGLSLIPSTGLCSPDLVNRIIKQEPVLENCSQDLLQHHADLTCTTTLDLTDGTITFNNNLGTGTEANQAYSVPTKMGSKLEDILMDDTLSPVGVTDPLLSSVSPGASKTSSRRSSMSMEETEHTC

A-375 = assay: proliferation inhibition in MITF-low A375 cells – cell-based, cherry-pick samples, set 2, counter-screen for MITF modulator project, dose response (AID 540335); type: functional; settings: Homo sapiens
[15] = viability loss in HeLa cells – cytotoxicity control for MgcRacGAP inhibitor project, dose response (AID 624300); type: functional
[16] = molecular target: T3, Rac GTPase-activating protein 1 (Homo sapiens, UniProt Q9H0H5); assay: blockers of MgcRacGAP-driven Rac1 GTP hydrolysis – biochemical, ADP Hunter fluorescence, primary and confirmatory, confirmation (AID 624330); type: functional
T3 sequence (Q9H0H5 whole entry): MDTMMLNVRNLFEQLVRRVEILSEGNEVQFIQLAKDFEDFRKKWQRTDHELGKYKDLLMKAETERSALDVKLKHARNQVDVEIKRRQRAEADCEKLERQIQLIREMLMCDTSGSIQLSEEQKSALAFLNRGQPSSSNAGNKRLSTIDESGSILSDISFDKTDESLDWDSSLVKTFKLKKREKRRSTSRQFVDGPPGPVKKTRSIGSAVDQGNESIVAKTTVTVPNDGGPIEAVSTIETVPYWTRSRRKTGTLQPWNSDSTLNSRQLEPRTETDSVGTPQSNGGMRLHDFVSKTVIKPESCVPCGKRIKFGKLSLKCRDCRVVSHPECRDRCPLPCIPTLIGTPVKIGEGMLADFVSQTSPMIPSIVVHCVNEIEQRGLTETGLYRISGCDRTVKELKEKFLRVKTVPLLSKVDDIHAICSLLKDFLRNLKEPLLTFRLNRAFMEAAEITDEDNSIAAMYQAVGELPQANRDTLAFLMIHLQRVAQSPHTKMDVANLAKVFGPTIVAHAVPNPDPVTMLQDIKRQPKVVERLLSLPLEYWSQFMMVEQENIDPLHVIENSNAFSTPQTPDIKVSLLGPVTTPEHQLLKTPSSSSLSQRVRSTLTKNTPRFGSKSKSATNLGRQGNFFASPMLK

BJ [17] = assay: BJ-TERT fibroblast viability loss – cell-based, RAS-independent, luminescence, dose response (AID 1933); type: functional; settings: Homo sapiens
BJ [18] = assay: cells; type: functional, cell-based; settings: Homo sapiens
BJ [19] = assay: BJ-TERT-LT-ST fibroblast viability loss – cell-based, RAS-independent, luminescence, dose response (AID 1935); type: functional; settings: Homo sapiens;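 further: BJ fibroblasts immortalized with TERT plus LT and ST oncogenes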
[20] = DRD fibroblast viability loss – cell-based, non-viral oncogenic, luminescence, dose response (AID 1934); type: functional; settings: Homo sapiens
Jurkat = assay: blockers of NF-kB activation in T cells – Jurkat, luciferase reporter, luminescence, B- and T-cell, dose response (AID 489004); type: functional, cell-based; settings: Homo sapiens;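 further: NF-kB luciferase reporter Jurkat cells stimulated with PMA plus ionomycin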
[21] = HEK-293T viability loss, compound-treated – cell-based, uHTS hits, cytotoxicity control for B/T-cell NF-kB inhibitor project, dose response (AID 489019); type: functional;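 further: IC50 reflects cytotoxicity as loss of cell viability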
INS1 = assay: INS-1E survival protection against cytokine death – cell-based, luminescence, retest, dose response (AID 449756); type: functional; settings: Rattus norvegicus;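 further: cell death triggered by IL-1 beta plus TNF-alpha plus IFN-gamma mixture; protective hits raise ATP signal compared with cytokine alone wells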
[22] = blockers of HIV-1 envelope-mediated cell-cell fusion – cherry-pick, dose response (AID 652057); type: functional, cell-based
Galanin receptor type 3 = Galanin receptor type 3 (Homo sapiens, UniProt O60755); assay: Fluorescence-based cell-based primary high throughput dose response assay to identify antagonists of the Galanin Receptor 3 (GalR3).; type: functional
Sequence of Galanin receptor type 3 (O60755 whole entry): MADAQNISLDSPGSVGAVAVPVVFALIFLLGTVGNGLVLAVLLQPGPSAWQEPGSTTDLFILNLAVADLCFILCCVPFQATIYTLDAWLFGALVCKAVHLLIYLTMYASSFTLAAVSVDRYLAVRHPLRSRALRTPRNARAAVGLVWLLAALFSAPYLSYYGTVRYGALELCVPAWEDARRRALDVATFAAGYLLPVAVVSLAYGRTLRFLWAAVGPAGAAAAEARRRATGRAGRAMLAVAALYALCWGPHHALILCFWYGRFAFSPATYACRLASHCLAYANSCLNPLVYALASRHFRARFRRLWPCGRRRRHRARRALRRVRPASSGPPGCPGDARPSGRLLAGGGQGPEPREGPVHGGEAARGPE

cells = type: functional, cell-based; settings: HEK-CNG
[23] = viability loss in CEM21 cells – cell-based, CellTiter-Glo luminescence, cherry-picked, cytotoxicity control for viral fusion inhibitor project, dose response (AID 652042); type: functional;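 further: potency for signal decrease meaning cytotoxicity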
[24] = blockers of HIV-1 ZM109 envelope-driven cell-cell fusion – HeLa effector, CEM target cells, luciferase, cherry-pick, dose response (AID 652058); type: functional, cell-based;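 further: luciferase signal from HIV-1 Env mediated cell-cell fusion of effector and target cells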
[25] = off-target signal loss in HeLa-CEM21 co-culture – HeLa F-luc CTL cells, cherry-picked, counter-screen for HIV-1 Env fusion inhibitor project, dose response (AID 652040); type: functional, cell-based;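 further: potency for signal decrease marking cytotoxic or nonspecific inhibition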
[26] = HIV-1 AD8 envelope cell-cell fusion blockers – cherry-pick, dose response (AID 652062); type: functional, cell-based;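 further: luciferase signal from cell-cell fusion driven by HIV-1 clade B AD8 Env; potency is for inhibitors of fusion seen as a drop in luminescence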

## CC(=O)Nc1ccc(NC(=O)c2ccccc2Br)cc1
[1]
  AC50: 6.02 µM (active)
[2]
  EC50: 8.7 µM (active)

## Cc1cccc(-n2ncc3c(N(C)C4CCCCC4)ncnc32)c1
HEK293 [3]
  EC50: 9.93 µM (active)
HEK293 [4]
  IC50: 0.783 µM (active)
[5]
  EC50: < 0.16 µM (active)
HEK293 [6]
  IC50: > 20 µM (inactive)
[7]
  EC50: < 0.31 µM (inactive)
HEK293 [8]
  IC50: 6.81 µM (active)
HEK293 [9]
  IC50: > 20 µM (inactive)
[10]
  AC50: 6.99 µM (active)
[11]
  AC50: 0.121 µM (active)
[12]
  AC50: 0.0758 µM (active)
[13]
  AC50: 40.2 µM (active)

## CN(C)CCNc1ccc2nnn3c4ccc(O)cc4c(=O)c1c23
[14]
  AC50: 4.73 µM (active)
A-375
  AC50: 46 µM (active)
[15]
  CC50: 56.5 µM (active)
[16]
  IC50: 62.6 µM (active)

## CCCCCCCCCn1ccc(=N)cc1
BJ [17]
  EC50: 9.76 µM (inconclusive)
BJ [18]
  EC50: 11.9 µM (active)
BJ [19]
  EC50: > 150 µM (inconclusive)
[20]
  EC50: 9.21 µM (active)
Jurkat
  IC50: 6.34 µM (active)
[21]
  IC50: > 80 µM (inactive)
INS1
  AC50: 0.48 µM (active)
[22]
  AC50: 8.77 µM (active)
Galanin receptor type 3
  IC50: 1.95 µM (active)
cells
  EC50: > 29.9 µM (inactive)
[23]
  AC50: 24.1 µM (active)
[24]
  AC50: 2 µM (active)
[25]
  AC50: 2.39 µM (active)
[26]
  AC50: 0.848 µM (active)
